This is an account of results in ChEMBL document CHEMBL1201862, “PubChem BioAssay data set” (2004).

Each structure is given as a SMILES string.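 Each compound was tested at five concentrations against cells in 96-well plates for 48 hours. The concentration for 50% growth inhibition is given as GI50.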 Calls of active or inactive are those of the source. No stated cut-off is given here; in the data, active = GI50 up to about 1.1 µM and inactive = higher. Where only a bound is given, the exact number is not on record here.

Common to all, as to test: NCI-60 cell line screen, 48 h
Test [1] has as its system DU-145.
Test [2] relates to HT-29.
The test system of test [3] is HCT-15.
For test [4], the system named is HOP-92.
Test [5] concerns U-251.
Test [6] deals with Hs-578T.
For test [7], the system named is KM12.
In test [8] the test system is PC-3.
In test [9] the test system is IGROV-1.
Test [10] relates to HL-60.
Test [11] has as its system UACC-62.
Test [12] relates to NCI/ADR-RES.
Test [13] has as its system T47D.
Test [14] relates to SK-MEL-5.
Test [15] deals with TK-10.
Test [16] deals with SK-MEL-28.
Test [17] relates to LOX IMVI.
Test [18] relates to Malme-3M.
Test [19] has as its system OVCAR-4.
In test [20] the test system is RPMI-8226.

For the molecule `CC(O)CCC(=O)c1ccoc1` (stereo not given), the GI50 in test [1] is 8200 µM (inactive); in test [2], 8450 µM (inactive); in test [3], 7660 µM; in test [4], 2490 µM (inactive); in test [5] it was 6780 µM (inactive); in test [6] it was 5120 µM (inactive). Also, the GI50 was 7710 µM (inactive) in test [7]; 6120 µM (inactive) in [8]; 7290 µM (inactive) in test [9]; 3350 µM (inactive) in test [10]; 5210 µM (inactive) in test [11]; 4990 µM (inactive) in [12]. Besides, the GI50 in [13] was 5010 µM (inactive); in test [14] it was 4560 µM (inactive); in test [15] it was 6980 µM (inactive); in test [16], 6930 µM (inactive); in test [17], 6030 µM (inactive); in [18], 6820 µM (inactive). Besides, the GI50 in [19] is 5110 µM (inactive); in test [20], 3740 µM (inactive).

On to `O=C(CCN1CCCC1)Nc1ccc2sc3ccccc3c(=O)c2n1`, for which the GI50 is 15.4 µM (inactive) in test [1]; 4.35 µM (inactive) in test [2]; 11.5 µM in test [3]; 18.1 µM (inactive) in [4]; 12.9 µM (inactive) in test [5]; 11.8 µM (inactive) in test [6]. Also, the GI50 is 12.8 µM (inactive) in test [7]; 13.5 µM (inactive) in [8]; 15.2 µM (inactive) in test [9]; 10.3 µM (inactive) in test [10]; 12.6 µM (inactive) in test [11]; 13.3 µM (inactive) in [12]. The GI50 is 19.2 µM (inactive) in test [13]; 11.8 µM (inactive) in [14]; > 10 µM (inactive) in test [15]; 14.3 µM (inactive) in test [16]; > 10 µM (inactive) in test [17]; 13.1 µM (inactive) in test [18]. For the same molecule, the GI50 in test [19] is 13.2 µM (inactive); in test [20] it was 12 µM (inactive).

On to `COc1cc(NC=C2C(=O)OC(C)(C)OC2=O)c(OC)c(C)c1OC`, for which the GI50 was > 100 µM (inactive) in test [1]; > 100 µM (inactive) in test [2]; > 100 µM in [3]; > 100 µM (inactive) in [4]; > 100 µM (inactive) in test [5]; > 100 µM (inactive) in test [6]. Besides, the GI50 in [7], in test [8], in test [9], in test [10], in [11] and in [12] was > 100 µM (inactive) in each case. Also, the GI50 is > 100 µM (inactive) in [13]; > 100 µM (inactive) in test [14]; > 100 µM (inactive) in test [15]; > 100 µM (inactive) in test [16]; > 100 µM (inactive) in test [17]; > 65.2 µM (inactive) in [18]. In addition, the GI50 in [19] is > 74 µM (inactive); in test [20], > 100 µM (inactive).

For `CCCC(=O)NC(C(=O)OCC)(N1CCOCC1)C(F)(F)F` (stereo not given), the GI50 in test [1] was > 100 µM (inactive); in [2] it was > 100 µM (inactive); in [3] it was > 100 µM; in test [4], > 100 µM (inactive); in test [5], > 100 µM (inactive); in test [6], > 100 µM (inactive). Also, the GI50 in [7], in [8], in test [9], in [10], in [11] and in [12] was > 100 µM (inactive) in each case. Also, the GI50 in test [13], in test [14], in test [15], in [16], in test [17] and in test [18] was > 100 µM (inactive) in each case. In addition, the GI50 in test [19] and in test [20] was > 100 µM (inactive) throughout.

For `CNC(=O)Nc1ccccc1`, the GI50 in [1] was > 100 µM (inactive); in [2], > 100 µM (inactive); in [3], > 100 µM; in test [4], > 100 µM (inactive); in test [5], > 100 µM (inactive); in [6], > 100 µM (inactive). For the same molecule, the GI50 in test [7], in [8], in [9], in test [10], in [11] and in test [12] was > 100 µM (inactive) in each case. Also, the GI50 in [13], in test [14], in [15], in [16], in test [17] and in test [18] was > 100 µM (inactive) throughout. Besides, the GI50 in [19] and in test [20] was > 100 µM (inactive) in each case.

Consider `C/C(=N\[N+](C)(C)C)c1ccc(C)c(C)c1`, for which the GI50 in test [1] was 64.3 µM (inactive); in test [2], 21.1 µM (inactive); in [3], > 10 µM; in test [4] it was > 10 µM (inactive); in test [5], 39.4 µM (inactive); in test [6], > 10 µM (inactive). Besides, the GI50 is 24.9 µM (inactive) in test [7]; 36.9 µM (inactive) in test [8]; > 100 µM (inactive) in [9]; 82.2 µM (inactive) in [10]; > 100 µM (inactive) in test [11]; > 10 µM (inactive) in test [12]. The GI50 in test [13] is > 100 µM (inactive); in test [14], 35.7 µM (inactive); in test [15] it was 45.9 µM (inactive); in [16], > 10 µM (inactive); in test [17] it was > 10 µM (inactive); in test [18], > 10 µM (inactive). In addition, the GI50 in test [19] was 88.1 µM (inactive); in test [20] it was 54 µM (inactive).

As for `Cc1c(S(=O)(=O)O)ccc(/N=N/c2c(O)c(C(=O)O)cc3ccccc23)c1Cl`, the GI50 in test [1] is > 100 µM (inactive); in test [2] it was > 100 µM (inactive); in test [3], > 100 µM; in test [4], > 100 µM (inactive); in test [5], > 92.5 µM (inactive); in test [6], > 62.1 µM (inactive). Also, the GI50 in test [7], in test [8], in test [9], in test [10], in test [11] and in [12] was > 100 µM (inactive) each time. Moreover, the GI50 in [13] is > 100 µM (inactive); in [14], > 100 µM (inactive); in test [15], > 100 µM (inactive); in test [16], > 100 µM (inactive); in test [17] it was > 100 µM (inactive); in test [18], > 63.5 µM (inactive). The GI50 in test [19] and in [20] was > 100 µM (inactive) in each case.

Take `COc1ccc(-c2oc3c(OC)c(OC)c(OC)c(O)c3c(=O)c2OC)cc1OC`: the GI50 in test [1] was 36.2 µM (inactive); in test [2], 23.6 µM (inactive); in [3], 14 µM; in [4], 0.243 µM (active); in test [5] it was 27.7 µM (inactive); in [6], 3.01 µM (inactive). For the same molecule, the GI50 in test [7] is 24.4 µM (inactive); in test [8], 18 µM (inactive); in [9], 3.15 µM (inactive); in [10], 6.81 µM (inactive); in [11], 21.8 µM (inactive); in test [12], 13.3 µM (inactive). The GI50 was 2.86 µM (inactive) in test [13]; 9.71 µM (inactive) in test [14]; 36.2 µM (inactive) in test [15]; 32.2 µM (inactive) in test [16]; 11 µM (inactive) in test [17]; 46.8 µM (inactive) in test [18]. In addition, the GI50 in [19] was 26.5 µM (inactive); in [20], 16.7 µM (inactive).

As for `CC(=O)NNC1=NN(C(C)=O)C2(S1)C(=O)Nc1ccc(Br)cc12` (stereo not given), the GI50 in test [1] was > 100 µM (inactive); in test [2], > 100 µM (inactive); in test [3], > 100 µM; in test [4], 65.5 µM (inactive); in test [5] it was > 100 µM (inactive); in test [6], > 100 µM (inactive). Also, the GI50 in [7] was > 100 µM (inactive); in test [8], > 100 µM (inactive); in test [9], 35.9 µM (inactive); in [10], > 100 µM (inactive); in test [11] it was 79.1 µM (inactive); in test [12], > 100 µM (inactive). Also, the GI50 in [13] is 22 µM (inactive); in test [14] it was > 100 µM (inactive); in [15] it was > 100 µM (inactive); in test [16], > 100 µM (inactive); in test [17] it was > 100 µM (inactive); in test [18], > 100 µM (inactive). In addition, the GI50 in test [19] is 78.3 µM (inactive); in test [20], > 100 µM (inactive).

With `COc1cc(C2c3cc4c(cc3OC(N3CCNCC3)C2C)OCO4)cc(OC)c1OC` (stereo not given), the GI50 is 0.594 µM (active) in test [1]; 0.387 µM (active) in test [2]; 0.893 µM in test [3]; 0.748 µM (active) in test [4]; 0.675 µM (active) in [5]; 0.17 µM (active) in test [6]. Moreover, the GI50 was 0.441 µM (active) in test [7]; 0.456 µM (active) in test [8]; 1.17 µM (inactive) in test [9]; 0.288 µM (active) in test [10]; 0.516 µM (active) in test [11]; 0.597 µM (active) in test [12]. In addition, the GI50 in test [13] was 0.979 µM (active); in test [14], 0.38 µM (active); in test [15] it was 20.7 µM (inactive); in test [16], 2.85 µM (inactive); in test [17], 0.871 µM (active); in test [18], 0.294 µM (active). Moreover, the GI50 in [19] was 1.66 µM (inactive); in test [20] it was 0.804 µM (active).
